What all share (type): in vivo
Assay [1] relates to Green Peach Aphid (Myzus persicae). As to the kind of experiment: Green peach aphid spray test on bell pepper plants. Conditions: 120 h, aphids on sprayed bell pepper plants, after 5 days, read-out: mortality in comparison with untreated controls. From the text: B.6 Green Peach Aphid (Myzus persicae)
(§1) The active compounds were formulated in cyclohexanone as a 10,000 ppm solution supplied in tubes. The tubes were inserted into an automated electrostatic sprayer equipped with an atomizing nozzle and they served as stock solutions for which lower dilutions were made in 50% acetone:50% water (v/v). A nonionic surfactant (Kinetic®) was included in the solution at a volume of 0.01% (v/v).
Bell pepper plants at the first true-leaf stage were infested prior to treatment by placing heavily infested leaves from the main colony on top of the treatment plants. Aphids were allowed to transfer overnight to accomplish an infestation of 30-50 aphids per plant and the host leaves were removed. The infested plants were then sprayed by an automated electrostatic plant sprayer equipped with an atomizing spray nozzle. The plants were dried in the sprayer fume hood, removed, and then maintained in a growth room under fluorescent lighting in a 24-hr photoperiod at about 25° C. and about 20-40% relative humidity. Aphid mortality on the treated plants, relative to mortality on untreated control plants, was determined after 5 days.

Assay [2] relates to Tobacco Budworm (Heliothis virescens). As to the kind of experiment: Tobacco budworm microtiter plate insect diet test. The note with it: 120 h, egg and larval mortality, 5 days, read-out: mortality in comparison with untreated controls. The protocol: B.4 Tobacco Budworm (Heliothis virescens) I
For evaluating control of tobacco budworm (Heliothis virescens) the test unit consisted of 96-well-microtiter plates containing an insect diet and 15-25 H. virescens eggs.
The compounds were formulated using a solution containing 75% v/v water and 25% v/v DMSO. Different concentrations of formulated compounds were sprayed onto the insect diet at 10 μl, using a custom built micro atomizer, at two replications.
After application, microtiter plates were incubated at about 28±1° C. and about 80±5% relative humidity for 5 days. Egg and larval mortality was then visually assessed.

Assay [3] relates to Boll Weevil (Anthonomus grandis). As to the kind of experiment: Boll weevil microtiter plate insect diet test. The note with it: 120 h, egg and larval mortality, 5 days, read-out: mortality in comparison with untreated controls. The protocol: B.3 Boll Weevil (Anthonomus grandis)
For evaluating control of boll weevil (Anthonomus grandis) the test unit consisted of 24-well-microtiter plates containing an insect diet and 20-30 A. grandis eggs.
The compounds were formulated using a solution containing 75% v/v water and 25% v/v DMSO. Different concentrations of formulated compounds were sprayed onto the insect diet at 20 μl, using a custom built micro atomizer, at two replications.
After application, microtiter plates were incubated at about 23±1° C. and about 50±5% relative humidity for 5 days. Egg and larval mortality was then visually assessed.

Assay [4] concerns Diamond Backmoth (Plutella xylostella). As to the kind of experiment: Diamond backmoth leaf-dip test on cabbage leaves. The note with it: 3rd instar larvae on dipped cabbage leaves, 72 hours after treatment, read-out: mortality in comparison with untreated controls. The protocol: B.1 Diamond Backmoth (Plutella xylostella)
The active compound was dissolved at the desired concentration in a mixture of 1:1 (vol:vol) distilled water: acteon. Surfactant (Alkamuls® EL 620) was added at a rate of 0.1% (vol/vol). The test solution was prepared at the day of use.
Leaves of cabbage were dipped in test solution and air-dried. Treated leaves were placed in petri dishes lined with moist filter paper and inoculated with ten 3rd instar larvae. Mortality was recorded 72 hours after treatment. Feeding damages were also recorded using a scale of 0-100%.

Assay [5] has as its system Southern Armyworm (Spodoptera eridiana). Briefly: Southern armyworm foliar spray test on lima bean plants. Conditions: 96 h, larvae on sprayed lima bean plants, 4 days after treatment, read-out: mortality in comparison with untreated controls. Here is the method:
B.2 Southern Armyworm (Spodoptera eridiana)
as §1
Lima bean plants (variety Sieva) were grown 2 plants to a pot and selected for treatment at the 1st true leaf stage. Test solutions were sprayed onto the foliage by an automated electrostatic plant sprayer equipped with an atomizing spray nozzle. The plants were dried in the sprayer fume hood and then removed from the sprayer. Each pot was placed into perforated plastic bags with a zip closure. About 10 to 11 armyworm larvae were placed into the bag and the bags zipped closed. Test plants were maintained in a growth room at about 25° C. and about 20-40% relative humidity for 4 days, avoiding direct exposure to fluorescent light (24 hour photoperiod) to prevent trapping of heat inside the bags. Mortality and reduced feeding were assessed 4 days after treatment, compared to untreated control plants.

Drawing on patent publication US20140243196A1, “Carbamoylmethoxy- and Carbamoylmethylthio- and Carbamoylmethylamino Benzamides for Combating Invertebrate Pests” (BASF SE, priority 2011, published 2014), this text covers mortality for one compound.

With `Cc1cc(Cl)cc(C(=O)NOCC(=O)N(C)C)c1NC(=O)c1ccc(C(F)(F)F)cc1-c1ncccc1Cl` [compound 1-1, 5-chloro-2-[2-(3-chloro-pyridin-2-yl)-4-trifluoromethyl-benzoylamino]-N-dimethylcarbamoylmethoxy-3-methyl-benzamide], the mortality at 2500 ppm in assay [1], in assay [2] and in assay [3] was greater than 75% in each case. Also, the mortality at 500 ppm in assay [4] and in assay [5] was no less than 75% in each case.
